Literature values, collected in patent publication US20050266042A1, “Methods and apparatus for treatment of aneurysmal tissue” (Medtronic Vascular, Inc., priority 2004, published 2005).

Details: for route of elimination / clearance: in vivo

Structure (SMILES)	route of elimination / clearance	also measured
C[C@H](CS)C(=O)N1CCC[C@H]1C(=O)O [captopril]	–	bioavailability (given orally): about 75%
CCC(=O)O[C@@H](O[P@](=O)(CCCCc1ccccc1)CC(=O)N1C[C@H](C2CCCCC2)C[C@H]1C(=O)O)C(C)C [fosinopril]	balanced elimination by the liver and kidneys	–
NCCCC[C@H](N[C@@H](CCc1ccccc1)C(=O)O)C(=O)N1CCC[C@H]1C(=O)O [lisinopril]	–	time to peak concentrations in the plasma (oral administration): about 7 hours
CCOC(=O)[C@H](CCc1ccccc1)N[C@@H](C)C(=O)N1CC2(C[C@H]1C(=O)O)SCCS2 [spirapril]	balanced elimination by the liver and kidneys	–
